Results: ChEMBL document CHEMBL5528009, “Benzothiozinone derivatives with anti-tubercular Activity-Further side chain investigation” (Eur J Med Chem, 2024)
In brackets after ≈: the same amount, converted by molar mass. Activity calls are given as the source filed them. No cut-off for these calls is given here.

Tests used:
[1] = tested on: Mycobacterium tuberculosis; assay: Antitubercular activity against Mycobacterium tuberculosis H37Rv (ATCC 25618) incubated for […] by MABA assay; assay type: functional
[2] = target: T1, Decaprenylphosphoryl-beta-D-ribose oxidase (Mycobacterium tuberculosis (strain ATCC 25618 / H37Rv)) (UniProt P9WJF1); assay: Time-dependent covalent inhibition of recombinant Mycobacterium tuberculosis DprE1 expressed in Escherichia coli by Amplex Red/peroxidase coupled assay
T1 sequence (whole entry): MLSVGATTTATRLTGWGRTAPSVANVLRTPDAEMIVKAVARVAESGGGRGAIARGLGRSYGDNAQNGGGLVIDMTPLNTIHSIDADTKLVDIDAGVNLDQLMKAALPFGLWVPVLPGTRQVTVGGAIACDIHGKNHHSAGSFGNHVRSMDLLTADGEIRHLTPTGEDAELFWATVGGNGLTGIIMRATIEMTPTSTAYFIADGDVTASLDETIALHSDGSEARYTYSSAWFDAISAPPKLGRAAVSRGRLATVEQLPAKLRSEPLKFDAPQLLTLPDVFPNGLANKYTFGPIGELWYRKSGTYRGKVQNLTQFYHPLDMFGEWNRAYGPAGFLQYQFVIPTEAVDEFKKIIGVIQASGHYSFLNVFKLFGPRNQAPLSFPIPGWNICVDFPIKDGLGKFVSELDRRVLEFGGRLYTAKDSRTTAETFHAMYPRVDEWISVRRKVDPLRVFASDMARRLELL

[3] = Metabolic stability in NADPH-fortified human liver microsomes assessed as CYP450-mediated stability incubated for 120 mins by LC/MS analysis; assay type: ADME, Microsome; conditions: 2 h
[4] = Metabolic stability in NADPH-fortified mouse liver microsomes assessed as CYP450-mediated stability incubated for 120 mins by LC/MS analysis; assay type: ADME, Microsome; conditions: 2 h

Row | SMILES | MIC [1] [µM] | further results
1 | CN(C)CCc1ccc(C#CCN(C)c2nc(=O)c3cc(C(F)(F)F)cc([N+](=O)[O-])c3s2)cc1 | 1.01 (≈ 0.495 µg/mL) | 
2 | CN(CC#Cc1cnsc1)c1nc(=O)c2cc(C(F)(F)F)cc([N+](=O)[O-])c2s1 | 0.03 (≈ 0.0128 µg/mL) | 
3 | CN(CC#Cc1cccc(C#N)c1)c1nc(=O)c2cc(C(F)(F)F)cc([N+](=O)[O-])c2s1 | 0.029 (≈ 0.0129 µg/mL) | 
4 | CN(C/C=C/C1CC1)c1nc(=O)c2cc(C(F)(F)F)cc([N+](=O)[O-])c2s1 | 0.023 (≈ 0.00886 µg/mL) | 
5 | CN(CC#CCN1CC[S+]([O-])CC1)c1nc(=O)c2cc(C(F)(F)F)cc([N+](=O)[O-])c2s1 | 1.05 (≈ 0.498 µg/mL) | 
6 | CN(CC#CC(C)(C)C)c1nc(=O)c2cc(C(F)(F)F)cc([N+](=O)[O-])c2s1 | 0.023 (≈ 0.00919 µg/mL) | 
7 | CN(CC#CC(O)CN1CCCCC1)c1nc(=O)c2cc(C(F)(F)F)cc([N+](=O)[O-])c2s1 (stereo unspecified) | 1.05 (≈ 0.493 µg/mL) | 
8 | CN(CC#CCN1CCCCC1)c1nc(=O)c2cc(C(F)(F)F)cc([N+](=O)[O-])c2s1 | 0.127 (≈ 0.0559 µg/mL) | 
9 | CN(Cc1nnc(-c2ccccc2)o1)c1nc(=O)c2cc(S(C)(=O)=O)cc([N+](=O)[O-])c2s1 | 0.03 (≈ 0.0142 µg/mL) | 
10 | CN(C/C=C/C1CCCCC1)c1nc(=O)c2cc(C(F)(F)F)cc([N+](=O)[O-])c2s1 | 0.002 (≈ 0.000855 µg/mL) | 
11 | CN(C/C=C/c1ccccc1)c1nc(=O)c2cc(C(F)(F)F)cc([N+](=O)[O-])c2s1 | 0.024 (≈ 0.0101 µg/mL) | TDI [2]: Active
12 | CN(C/C=C\C1CCCC1)c1nc(=O)c2cc(C(F)(F)F)cc([N+](=O)[O-])c2s1 | 0.01 (≈ 0.00413 µg/mL) | 
13 | CN(CC#Cc1ccc2c(c1)OCCO2)c1nc(=O)c2cc(C(F)(F)F)cc([N+](=O)[O-])c2s1 | 0.092 (≈ 0.0439 µg/mL) | 
14 | CN(CC#Cc1cncs1)c1nc(=O)c2cc(C(F)(F)F)cc([N+](=O)[O-])c2s1 | 0.129 (≈ 0.055 µg/mL) | 
15 | CN(CC#CCN1CCS(=O)(=O)CC1)c1nc(=O)c2cc(C(F)(F)F)cc([N+](=O)[O-])c2s1 | 0.867 (≈ 0.425 µg/mL) | 
16 | CN(CC#Cc1ccsc1)c1nc(=O)c2cc(C(F)(F)F)cc([N+](=O)[O-])c2s1 | 0.014 (≈ 0.00596 µg/mL) | Stability [3]: Stable; Stability [4]: Stable
17 | CN(CC#Cc1ccc(F)c(F)c1)c1nc(=O)c2cc(C(F)(F)F)cc([N+](=O)[O-])c2s1 | 0.013 (≈ 0.00592 µg/mL) | 
18 | CN(CC#CCc1ccccc1)c1nc(=O)c2cc(C(F)(F)F)cc([N+](=O)[O-])c2s1 | 0.053 (≈ 0.023 µg/mL) | TDI [2]: Active
19 | CN(CC#CCN1CCCC1)c1nc(=O)c2cc(C(F)(F)F)cc([N+](=O)[O-])c2s1 | 0.378 (≈ 0.161 µg/mL) | 
20 | CN(CC#CCN1CCSCC1)c1nc(=O)c2cc(C(F)(F)F)cc([N+](=O)[O-])c2s1 | 0.028 (≈ 0.0128 µg/mL) | 
21 | CN(C/C=C\C1CCCCC1)c1nc(=O)c2cc(C(F)(F)F)cc([N+](=O)[O-])c2s1 | 0.009 (≈ 0.00385 µg/mL) | 
22 | CN(Cc1cn(-c2ccccc2)nn1)c1nc(=O)c2cc(S(C)(=O)=O)cc([N+](=O)[O-])c2s1 | 0.047 (≈ 0.0222 µg/mL) | 
